Laboratory results reported in patent US5430062A, “Stilbene derivatives as anticancer agents” (priority 1993, dated 1995).
Counter-ions that a name gives are not always drawn. Like-named read-outs stand apart in the source and are kept apart here.

Experiments:
SF-295 CNS cancer = experiment: Cytotoxicity, SF-295; details: read-out: cytotoxicity GI50, SF-295, 50% growth inhibition, average of two determinations, 8640 min
M14 melanoma = experiment: Cytotoxicity, M14
tubulin [1] = experiment: Inhibition of tubulin polymerization (turbidimetry); assay type: biochemical, bovine
HL-60 (TB) leukemia = experiment: Cytotoxicity, HL-60(TB) leukemia; details: read-out: cytotoxicity GI50, HL-60(TB), 50% growth inhibition, average of two determinations, 8640 min
OVCAR-3 ovarian cancer = experiment: Cytotoxicity, OVCAR-3
COLO 205 colon cancer = experiment: Cytotoxicity, COLO 205; details: read-out: cytotoxicity GI50, COLO 205, 50% growth inhibition, average of two determinations, 8640 min
[2] = tested on: DMS 273 small cell lung cancer; experiment: Cytotoxicity, DMS 273; details: read-out: cytotoxicity GI50, DMS 273, 50% growth inhibition, average of two determinations, 8640 min
CAKI-1 renal cancer = experiment: Cytotoxicity, CAKI-1
tubulin [3] = experiment: Inhibition of [3H]colchicine binding to tubulin (DEAE-filter); design: species or system bovine
[4] = tested on: HT-29 colon adenocarcinoma; experiment: MTT cytotoxicity assay, HT-29; details: Homo sapiens, HT-29, […], read-out: Cytotoxicity ED50, HT-29
MCF-7 breast carcinoma = experiment: MTT cytotoxicity assay, MCF-7; details: Homo sapiens, MCF7, […], read-out: Cytotoxicity ED50, MCF-7
A-549 lung carcinoma = experiment: MTT cytotoxicity assay, A-549; details: Homo sapiens, A549, […], read-out: Cytotoxicity ED50, A-549
tubulin [5] = details: cited from earlier work
MLM melanoma = experiment: MTT cytotoxicity assay, MLM; details: […], read-out: Cytotoxicity ED50, MLM
[6] = Stability in DMSO solution at room temperature (NMR); assay type: physicochemical; details: protected from light, read-out: formation of the cis isomer (1a)
Method: The cytotoxic compounds gave reproducible results in the tubulin polymerization assay with the exception of the trans stilbenes 1b and 6n. […] The cytotoxic properties of these two agents may similarly result from chemical changes in solution. […] The ratio of 6n:5n was 1:1 after 24 hours of the dissolution of pure 6n in DMSO at room temperature.

[7] = read-out: cytotoxicity GI50, M14; 50% growth inhibition; average of two determinations; 8640 min
[8] = Table X, different glutamate preparation (1M monosodium glutamate and GTP), read-out: inhibn of tubulin polymn IC50 (±SD)
[9] = read-out: cytotoxicity GI50, OVCAR-3; 50% growth inhibition; average of two determinations; 8640 min
[10] = read-out: cytotoxicity GI50, CAKI-1; 50% growth inhibition; average of two determinations; 8640 min
[11] = read-out: cytotoxicity GI50, M14, 50% growth inhibition, average of two determinations, 8640 min
[12] = benzylanilines, Table X series, read-out: tubulin polymerization IC50
[13] = read-out: cytotoxicity GI50, OVCAR-3, 50% growth inhibition, average of two determinations, 8640 min
[14] = read-out: cytotoxicity GI50, CAKI-1, 50% growth inhibition, average of two determinations, 8640 min
[15] = read-out: cytotoxicity GI50, M14, 50% growth inhibition, average of two determinations, 8640 min, Hydrochloride
[16] = Table X, different glutamate preparation (1M monosodium glutamate and GTP), Hydrochloride, read-out: inhibn of tubulin polymn IC50 (±SD)
[17] = read-out: cytotoxicity GI50, OVCAR-3, 50% growth inhibition, average of two determinations, 8640 min, Hydrochloride
[18] = read-out: cytotoxicity GI50, CAKI-1, 50% growth inhibition, average of two determinations, 8640 min, Hydrochloride

SMILES | GI50 (SF-295 CNS cancer) [nM] | IC50 (tubulin [1]; [8]) [nM] | GI50 (HL-60 (TB) leukemia) [nM] | GI50 (COLO 205 colon cancer) [nM] | GI50 [2] [nM] | GI50 (CAKI-1 renal cancer; [10]) [nM] | GI50 (M14 melanoma; [11]) [nM] | IC50 (tubulin [1]; [12]) [nM] | GI50 (OVCAR-3 ovarian cancer; [13]) [nM] | GI50 (SF-295 CNS cancer; Hydrochloride) [nM] | IC50 (tubulin [1]; [16]) [nM] | GI50 (HL-60 (TB) leukemia; Hydrochloride) [nM] | GI50 (OVCAR-3 ovarian cancer; [17]) [nM] | GI50 (COLO 205 colon cancer; Hydrochloride) [nM] | GI50 ([2]; Hydrochloride) [nM] | other results
COc1cc(C=Nc2ccc(C(C)C)cc2)cc(OC)c1OC [108f, 4-Isopropyl-N-(3,4,5-trimethoxybenzylidene)aniline] | > 100000 | > 40000 | > 100000 | > 100000 | 52500 | > 100000 |  |  |  |  |  |  |  |  |  | GI50 (M14 melanoma; [7]): > 100000 nM; GI50 (OVCAR-3 ovarian cancer; [9]): > 100000 nM
CCCc1ccc(N=Cc2cc(OC)c(OC)c(OC)c2)cc1 [108g, 4-n-Propyl-N-(3,4,5-trimethoxybenzylidene)aniline] | > 100000 | > 40000 | 22600 | > 100000 | > 100000 | > 100000 |  |  |  |  |  |  |  |  |  | GI50 (M14 melanoma; [7]): > 100000 nM; GI50 (OVCAR-3 ovarian cancer; [9]): > 100000 nM
COc1cc(CNc2ccc(C)cc2)cc(OC)c1OC [109a, 4-Methyl-N-(3,4,5-trimethoxybenzyl)aniline] | 163 | 6000 | 122 | 152 | 92.6 |  | 150 | 6000 |  |  |  |  |  |  |  | 
CCc1ccc(NCc2cc(OC)c(OC)c(OC)c2)cc1 [109b, 4-Ethyl-N-(3,4,5-trimethoxybenzyl)aniline] | 266 | 3000 | 168 | 344 | 135 | 354 | 315 | 3000 | 283 |  |  |  |  |  |  | 
COc1ccc(NCc2cc(OC)c(OC)c(OC)c2)cc1 [109c, 4-Methoxy-N-(3,4,5-trimethoxybenzyl)aniline] | 266 | 4600 | 115 | 235 | 141 |  |  |  | 363 |  |  |  |  |  |  | GI50 (CAKI-1 renal cancer; [14]): 458 nM
CCOc1ccc(NCc2cc(OC)c(OC)c(OC)c2)cc1 [109d, 4-Ethoxy-N-(3,4,5-trimethoxybenzyl)aniline] | 274 | 12000 | 296 | 432 | 296 | 2040 | 403 |  | 340 |  |  |  |  |  |  | 
COc1cc(CNc2ccc(SC)cc2)cc(OC)c1OC [109e, 4-Methylthio-N-(3,4,5-trimethoxybenzyl)aniline] | 7280 | > 40000 | 3700 | 3880 | 3090 |  | 5260 |  | 5930 |  |  |  |  |  |  | GI50 (CAKI-1 renal cancer; [14]): 32000 nM
CCc1ccc(NCc2cc(OC)c(OC)c(OC)c2)cc1 [110b, 4-Ethyl-N-(3,4,5-trimethoxybenzyl)aniline Hydrochloride] |  |  |  |  |  |  |  |  |  | 339 | 7200 | 245 | 405 | 352 | 818 | GI50 (M14 melanoma; [15]): 437 nM; IC50 (tubulin [1]; benzylanilines, Table X series, Hydrochloride, read-out: tubulin polymerization IC50): 7200 nM
COc1ccc(NCc2cc(OC)c(OC)c(OC)c2)cc1 [110c, 4-Methoxy-N-(3,4,5-trimethoxybenzyl)aniline Hydrochloride] |  |  |  |  |  |  |  | 8900 |  | 2320 | 8900 | 834 | 1960 | 1660 | 534 | GI50 (M14 melanoma; [7]): 2380 nM; GI50 (CAKI-1 renal cancer; [18]): 2500 nM
CCOc1ccc(NCc2cc(OC)c(OC)c(OC)c2)cc1 [110d, 4-Ethoxy-N-(3,4,5-trimethoxybenzyl)aniline Hydrochloride] |  |  |  |  |  |  |  | 11000 |  | 418 | 11000 | 448 | 464 | 538 | 961 | GI50 (M14 melanoma; [15]): 532 nM; GI50 (CAKI-1 renal cancer; [18]): 1050 nM
COc1cc(CNc2ccc(SC)cc2)cc(OC)c1OC [110e, 4-Methylthio-N-(3,4,5-trimethoxybenzyl)aniline Hydrochloride] |  |  |  |  |  |  |  | 16000 |  | 3410 | 16000 | 3290 | 4850 | 3600 | 4910 | GI50 (M14 melanoma; [15]): 4840 nM; GI50 (CAKI-1 renal cancer; [18]): 16300 nM
COc1ccc(/C=C\c2cc(OC)c(OC)c(OC)c2)cc1O [compound 1a, reference compound] |  |  |  |  |  |  |  |  |  |  |  |  |  |  |  | inhibition of colchicine binding (in words) (tubulin [3]): nearly total inhibition of colchicine binding; IC50 [4]: 0.012 nM; IC50 (MCF-7 breast carcinoma): 0.0038 nM; IC50 (A-549 lung carcinoma): 0.0012 nM; competitive inhibition of colchicine binding (tubulin [5]): competitively inhibit the binding of radiolabeled colchicine to tubulin; IC50 (MLM melanoma): 0.014 nM
COc1ccc(/C=C/c2cc(OC)c(OC)c(OC)c2)cc1O [compound 1b, reference compound] |  |  |  |  |  |  |  |  |  |  |  |  |  |  |  | degraded at […] ([6]; four weeks): ~10%; degraded at 336 h ([6]; two weeks): ~3%
